*1 amine or outer side, *2 acyl side, *3 side chain or, on linkers, in order; H or OH if unused. Where a SMILES comes first, the peptide text is derived from it. [ ]: non-standard residue; d: D form. The star is where a group is joined. NMeAbu(4-morpholino) = CN[C@@H](CCN1CCOCC1)C(=O)O; X1 = CN([C@@H](CCN1CCCCC1)C(=O)[*:2])[*:1]; NMeW = CN[C@@H](Cc1c[nH]c2ccccc12)C(=O)O; NMeY = CN[C@@H](Cc1ccc(O)cc1)C(=O)O; NMeCha = CN[C@@H](CC1CCCCC1)C(=O)O; NMeLys(Me) = CNCCCC[C@H](NC)C(=O)O; NMeF = CN[C@@H](Cc1ccccc1)C(=O)O; NMeI = CC[C@H](C)[C@H](NC)C(=O)O; NMeT = CN[C@H](C(=O)O)[C@@H](C)O; NMeD = CN[C@@H](CC(=O)O)C(=O)O; dNMeL = CN[C@H](CC(C)C)C(=O)O; NMeK = CN[C@@H](CCCCN)C(=O)O; NMeS = CN[C@@H](CO)C(=O)O; Morpholide = C1CN(*)CCO1; NMeA = CN[C@@H](C)C(=O)O; Piperidide = C1CCN(*)CC1
How the values were obtained:
[1] = test system: RRCK (Ralph Russ canine kidney cell line); assay: RRCK permeability; settings: MDCK
[2] = RRCK permeability; settings: MDCK; for Papp A→B: dog
[3] = rat; cited from earlier work
[4] = test system: Caco-2; settings: cited from earlier work
[5] = rat intestinal S-9 fraction and rat brush border membrane vesicles

CC(C)C[C@@H]1NC(=O)[C@H](Cc2ccc(O)cc2)N(C)C(=O)[C@H]2CCCN2C(=O)[C@H](CC(C)C)NC(=O)[C@H](Cc2ccc(O)cc2)N(C)C(=O)[C@@H](CC(C)C)N(C)C1=O [Compound 6] (cyclo(L[dNMeL][NMeY]L[dP][NMeY]))
log Papp(RRCK) [1]: −5.88
recovery [2]: 72.6%

CC(C)C[C@@H]1NC(=O)[C@H](Cc2ccc(O)cc2)N(C)C(=O)[C@H]2CCCN2C(=O)[C@H](CC(C)C)NC(=O)[C@H](CC(=O)N2CCOCC2)N(C)C(=O)[C@@H](CC(C)C)N(C)C1=O [Compound 16] (cyclo(L[dNMeL][NMeD](Morpholide)L[dP][NMeY]))
log Papp(RRCK) [1]: −6.20
recovery [2]: 47.9%

CC(C)C[C@@H]1NC(=O)[C@H](Cc2ccc(O)cc2)N(C)C(=O)[C@H]2CCCN2C(=O)[C@H](CC(C)C)NC(=O)[C@H]([C@@H](C)O)N(C)C(=O)[C@@H](CC(C)C)N(C)C1=O [Compound 3] (cyclo(L[dNMeL][NMeT]L[dP][NMeY]))
log Papp(RRCK) [1]: −5.33

CC(C)C[C@@H]1NC(=O)[C@H](Cc2ccc(O)cc2)N(C)C(=O)[C@H]2CCCN2C(=O)[C@H](CC(C)C)NC(=O)[C@H](CCN2CCOCC2)N(C)C(=O)[C@@H](CC(C)C)N(C)C1=O [Compound 15] (cyclo(L[dNMeL][NMeAbu(4-morpholino)]L[dP][NMeY]))
log Papp(RRCK) [1]: −5.92
recovery [2]: 48.7%

cyclo-[LPro-LPhe-DTrp(NMe)-LLys(NMe)-LThr-LPhe(NMe)] [Kessler peptide]
oral bioavailability [3]: 10%
Caco-2 permeability [4]: good

CC[C@H](C)[C@H]1C(=O)N[C@@H](CC(C)C)C(=O)N2CCC[C@@H]2C(=O)N(C)[C@@H](Cc2ccc(O)cc2)C(=O)N[C@@H](CC(C)C)C(=O)N(C)[C@H](CC(C)C)C(=O)N1C [Compound 4] (cyclo(L[dNMeL][NMeI]L[dP][NMeY]))
recovery [2]: 39.7%

CC(C)C[C@@H]1NC(=O)[C@H](Cc2ccc(O)cc2)N(C)C(=O)[C@H]2CCCN2C(=O)[C@H](CC(C)C)NC(=O)[C@H](CC(=O)O)N(C)C(=O)[C@@H](CC(C)C)N(C)C1=O [Compound 9] (cyclo(L[dNMeL][NMeD]L[dP][NMeY]))
recovery [2]: 74.8%
Papp A→B [2]: 0.457 ×10⁻⁶ cm/s

CC(C)C[C@@H]1NC(=O)[C@H](Cc2ccc(O)cc2)N(C)C(=O)[C@H]2CCCN2C(=O)[C@H](CC(C)C)NC(=O)[C@H](Cc2c[nH]c3ccccc23)N(C)C(=O)[C@@H](CC(C)C)N(C)C1=O [Compound 8] (cyclo(L[dNMeL][NMeW]L[dP][NMeY]))
log Papp(RRCK) [1]: −6.66
recovery [2]: 37.1%

CNCCCC[C@H]1C(=O)N[C@@H](CC(C)C)C(=O)N2CCC[C@@H]2C(=O)N(C)[C@@H](Cc2ccc(O)cc2)C(=O)N[C@@H](CC(C)C)C(=O)N(C)[C@H](CC(C)C)C(=O)N1C [Compound 11] (cyclo(L[dNMeL][NMeLys(Me)]L[dP][NMeY]))
recovery [2]: 59.7%
Papp A→B [2]: 0.234 ×10⁻⁶ cm/s

CC(C)C[C@@H]1NC(=O)[C@H](Cc2ccc(O)cc2)N(C)C(=O)[C@H]2CCCN2C(=O)[C@H](CC(C)C)NC(=O)[C@H](CO)N(C)C(=O)[C@@H](CC(C)C)N(C)C1=O [Compound 2] (cyclo(L[dNMeL][NMeS]L[dP][NMeY]))
stability towards oxidative or proteolytic degradation [5]: stable
log Papp(RRCK) [1]: −5.81
recovery [2]: 84.3%

CC(C)C[C@@H]1NC(=O)[C@H](Cc2ccc(O)cc2)N(C)C(=O)[C@H]2CCCN2C(=O)[C@H](CC(C)C)NC(=O)[C@H](CC2CCCCC2)N(C)C(=O)[C@@H](CC(C)C)N(C)C1=O [Compound 12] (cyclo(L[dNMeL][NMeCha]L[dP][NMeY]))
log Papp(RRCK) [1]: −6.74
recovery [2]: 12.2%

CC(C)C[C@@H]1NC(=O)[C@H](Cc2ccc(O)cc2)N(C)C(=O)[C@H]2CCCN2C(=O)[C@H](CC(C)C)NC(=O)[C@H](CC(=O)N2CCCCC2)N(C)C(=O)[C@@H](CC(C)C)N(C)C1=O [Compound 14] (cyclo(L[dNMeL][NMeD](Piperidide)L[dP][NMeY]))
log Papp(RRCK) [1]: −5.84
recovery [2]: 45.6%

CC(C)C[C@@H]1NC(=O)[C@H](Cc2ccc(O)cc2)N(C)C(=O)[C@H]2CCCN2C(=O)[C@H](CC(C)C)NC(=O)[C@H](CCCCN)N(C)C(=O)[C@@H](CC(C)C)N(C)C1=O [Compound 10] (cyclo(L[dNMeL][NMeK]L[dP][NMeY]))
log Papp(RRCK) [1]: −6.56
recovery [2]: 56.5%

CC(C)C[C@@H]1NC(=O)[C@H](Cc2ccc(O)cc2)N(C)C(=O)[C@H]2CCCN2C(=O)[C@H](CC(C)C)NC(=O)[C@H](Cc2ccccc2)N(C)C(=O)[C@@H](CC(C)C)N(C)C1=O [Compound 7] (cyclo(L[dNMeL][NMeF]L[dP][NMeY]))
log Papp(RRCK) [1]: −5.24
recovery [2]: 59.8%

CC(C)C[C@@H]1NC(=O)[C@H](Cc2ccc(O)cc2)N(C)C(=O)[C@H]2CCCN2C(=O)[C@H](CC(C)C)NC(=O)[C@H](CCN2CCCCC2)N(C)C(=O)[C@@H](CC(C)C)N(C)C1=O [Compound 13] (cyclo(L[dNMeL][X1]L[dP][NMeY]))
log Papp(RRCK) [1]: −6.15
recovery [2]: 47.9%

CC(C)C[C@@H]1NC(=O)[C@H](Cc2ccc(O)cc2)N(C)C(=O)[C@H]2CCCN2C(=O)[C@H](CC(C)C)NC(=O)[C@H](C)N(C)C(=O)[C@@H](CC(C)C)N(C)C1=O [Compound 5] (cyclo(L[dNMeL][NMeA]L[dP][NMeY]))
log Papp(RRCK) [1]: −5.26
recovery [2]: 47.1%
